For this test, the system named is biofilm. As to the kind of experiment: biofilm removal by ionic liquids (training set for QSFR model). Format: cell-based. The note with it: where two values were available (MMPZ MeSO4, EMIM Tosylate) the value obtained at the higher pH. An excerpt:
The process of QSFR model building involves assembling a dataset with experimental results and molecular structures, descriptor calculation and contingency analysis followed by model generation and validations. Ionic liquids with biofilm removal data served as a data set for model generation. The details of the dataset are shown in Table 1 (ID and biofilm removal data for ionic liquids selected for model generation (training set).

With “1,2,3-trimethylimidazolium methyl sulfate [TMIM MeSO4]”, the “% removal of biofilm” value worked out at 51.8%.

Turning to “1-ethyl-3-methylimidazolium ethylsulphate [EMIM Ethyl SO4]”, the “% removal of biofilm” value was determined as 48.1%.

For `C=CCn1cc[n+](C)c1.[Cl-]` [AMIM Cl, 1-allyl-3-methylimidazolium (AMIM) chloride], the “% removal of biofilm” value worked out at 44.8%.

Consider `CCCCn1cc[n+](C)c1.[Br-]` [BMIM Br, BMIM bromide (Br)], for which the “% removal of biofilm” value is listed as 48.0%.

As to `CCCCn1cc[n+](C)c1.[Cl-]` [BMIM Cl, 1-butyl-3-methylimidazolium (BMIM) chloride (Cl)], the “% removal of biofilm” value is reported as 43.8%.

Take `CCCCn1cc[n+](C)c1.COS(=O)(=O)[O-]` [BMIM MeSO4, BMIM methyl sulfate]: the “% removal of biofilm” value was determined as 53.9%.

As to `CCCCCCCCOS(=O)(=O)[O-].CCCCn1cc[n+](C)c1` [BMIM Octyl SO4, BMIM octyl sulfate], the “% removal of biofilm” value is listed as 58.6%.

Regarding `CC(=O)[O-].CCCCn1cc[n+](C)c1` [BMIMOAc, BMIM acetate (OAc)], the “% removal of biofilm” value is recorded as 55.9%.

In the case of `CCCCCCCCCCn1cc[n+](C)c1.[Cl-]` [DMIM CL, 1-decyl-3-methylimidazolium (DMIM) chloride], the “% removal of biofilm” value was found to be 57.3%.

Consider `CCn1cc[n+](C)c1.[Br-]` [EMIM Br, EMIM bromide (Br)], for which the “% removal of biofilm” value is 48.6%.

With `CCn1cc[n+](C)c1.[Cl-]` [EMIM Cl, 1-ethyl-3-methylimidazolium (EMIM) chloride (Cl)], the “% removal of biofilm” value amounted to 44.3%.

Take `CCn1cc[n+](C)c1.Cc1ccc(S(=O)(=O)[O-])cc1` [EMIM Tosylate, EMIM tosylate]: the “% removal of biofilm” value came to 59.5%.

With `CCOP(=O)([O-])OCC.CCn1cc[n+](C)c1` [EMIM diethyl PO4, EMIM diethyl phosphate], the “% removal of biofilm” value worked out at 52.7%.

Take `COS(=O)(=O)[O-].Cc1cn(C)[n+](C)c1` [MMMPz MeSO4, 1,2,4-trimethylpyrazolium (MMMPZ) methyl sulfate]: the “% removal of biofilm” value stood at 57.8%.

As to “Tris(2-hydroxyethyl)methylammonium methylsulphate [MTEOA MeSO4]”, the “% removal of biofilm” value was 52.8%.

Values taken from US20150335547A1, “ORAL CARE COMPOSITION CONTAINING IONIC LIQUIDS” (priority 2012, published 2015).
